In PubChem BioAssay AID550 (SRMLSC, 2006):
Activity calls are given as the source filed them.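 Rule for the calls: active = clearly stronger inhibition of the target decarboxylase than of the coupling enzymes tested in parallel without it; inactive = the rest.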

target: not listed separately; assay: diphosphomevalonate decarboxylase inhibition dose curves – biochemical, PK/LDH-coupled NADH fluorescence, hexokinase coupling counter-screen, dose response (AID 550); conditions: purified DPM-DC, measured here: coupling enzymes counter-screen (hexokinase)

Row | SMILES | IC50 [µM]
1 | CCn1nc(-c2cccs2)nc2c(=O)n(C)c(=O)nc1-2 | 5.99
2 | O=C(O)c1cccn2c(=O)c3ccccc3nc12 | 54
3 | CN(C)[C@@H]1C(=O)C(C(N)=O)=C(O)[C@@]2(O)C(=O)C3=C(O)c4c(O)cccc4[C@@](C)(O)[C@H]3[C@H](O)[C@@H]12 | 125
4 | CC(/C=N/n1cnnc1)=C\c1ccco1 | 3440
5 | Clc1cccc(-c2ccc(/C=N/n3cnnc3)o2)c1 | 3720
6 | O=c1c2ccccc2[se]n1-c1ccccc1 | 38.4
7 | COC(=O)Sc1nnc(-c2ccc(Br)cc2)o1 | 19.6
8 | CCN(CC)c1ccc(/C=N/n2c(=S)[nH]nc(C)c2=O)cc1 | 39.5
9 | CCn1nc(-c2ccccc2)nc2c(=O)n(C)c(=O)nc1-2 | 13.5
10 | Nc1nc2c(s1)CCc1c-2cnn1-c1ccccc1 | 21

target: diphosphomevalonate decarboxylase (Streptococcus pneumoniae D39); assay: as above; conditions: purified DPM-DC

Row | SMILES | IC50 | outcome
11 | CN(C)[C@@H]1C(=O)C(C(N)=O)=C(O)[C@@]2(O)C(=O)C3=C(O)c4c(O)cccc4[C@@](C)(O)[C@H]3[C@H](O)[C@@H]12 | inactive | 
12 | CCCC(=O)Nc1ccc(N2CCN(C(=O)CCC)CC2)cc1 |  | inactive
13 | CCCn1c(C)nc2c(c1=O)c1nc3ccccc3nc1n2-c1ccc2c(c1)OCCO2 |  | inactive
14 | CC(C)CC(=O)NCC(C)NC(=O)CC(C)C (configuration not stated) |  | inactive
15 | CN(C)C(=O)Nc1cnc2ccccc2c1 |  | inactive
16 | Cc1nc2cc(NC(=O)NCc3ccco3)ccc2n1C |  | inactive
17 | CCOC(=O)CSc1cc(=O)n(C)c2cc(Cl)ccc12 |  | inactive
18 | Cc1nc2nc(C)c(CCC(=O)N3CCOCC3)c(C)n2n1 |  | inactive
19 | Cc1c(C(=O)OCC(C)(C)CN(C)C)oc2ccccc12 |  | inactive
20 | Cc1ccsc1C1C(C(=O)O)c2ccccc2C(=O)N1C (configuration not stated) |  | inactive
21 | Cc1ccccc1Cc1c(C)nc2c(C(=O)N3CCN(Cc4ccc5c(c4)OCO5)CC3)cnn2c1C |  | inactive
22 | O=c1[nH]c(-c2ccncc2)nc2ccccc12 |  | inactive
23 | S=c1[nH]nc(-c2ccccc2)n1C1C=CCCC1 (configuration not stated) |  | inactive
24 | Cc1cccc(C(=O)Nc2cc(=O)n(C)c(=O)n2C)c1 |  | inactive
25 | CCOC(=O)COc1ccc2nsnc2c1Cl |  | inactive
26 | Cc1cc(C)c(S(=O)(=O)NCc2cn3c(C)csc3n2)cc1C |  | inactive
27 | COc1cc(NC(=O)c2ccco2)c(OC)cc1NC(=O)CCC(=O)Nc1cc(C)ccc1C |  | inactive
28 | Cc1ccc(-n2c(SCC(=O)NCc3ccco3)nnc2-c2cccnc2)c(C)c1 |  | inactive
29 | CCOC(=O)C(Cc1ccccc1)C(=O)Nc1nccs1 (configuration not stated) |  | inactive

Row | SMILES | IC50 | outcome
30 | CC1(C)C(C=C(Cl)Cl)C1C(=O)N1CCN(c2ccccc2)CC1 (configuration not stated) |  | inactive
31 | O=C(CCc1nc(-c2ccccc2F)no1)NCCN1CCc2ccccc2C1 |  | inactive
32 | Cc1cc(C(=O)CSc2nnnn2-c2ccc(Cl)cc2)c(C)n1CC1CCCO1 (configuration not stated) |  | inactive
33 | Cc1cc(=O)[nH]c(/N=C(\N)Nc2cccc3ccccc23)n1 |  | inactive
34 | CN1CC(=O)NC1=NC(=O)C12CC3CC(CC(C3)C1)C2 |  | inactive
35 | CCOC(=O)c1c(C)n(OCc2ccccc2)c2ccc3c(no[n+]3[O-])c12 |  | inactive
36 | Cc1occc1C(=O)Nc1nnc(C(F)(F)F)s1 |  | inactive
37 | CCOc1ccc(C(=O)O)cc1OC |  | inactive
38 | CCc1ccc(S(=O)(=O)NCc2cn3ccsc3n2)s1 |  | inactive
39 | CC(=O)Nc1cccc(NC(=O)CSc2nnnn2Cc2ccccc2)c1 |  | inactive
40 | Cc1c(C(=O)NCc2ccc3c(c2)OCO3)sc2nc(-c3ccccc3)cn12 |  | inactive
41 | CCOC(=O)c1[nH]c2ccc(OC)cc2c1NC(=O)CN1CCN(c2ccccn2)CC1 |  | inactive
42 | CC(C)C(OC(=O)CN1C(=O)COc2ccccc21)C(=O)NC1CCCC1 (configuration not stated) |  | inactive
43 | CN(C)CCSc1nnc(-c2ccccc2)o1 |  | inactive
44 | CC(C)(CO)NC(=O)C(c1ccccc1)c1ccccc1 |  | inactive
45 | COC(=O)C1=C(C)OC(N)=C(C#N)C1c1cc(OC)c(OCC(N)=O)cc1Cl (configuration not stated) |  | inactive
46 | O/N=C1\CCC\C1=C/c1ccco1 |  | inactive
47 | CN(C)C(=O)N1CCC(C(=O)NCc2cccs2)CC1 |  | inactive
48 | O=C1CC(c2cccnc2)c2cc3c(cc2N1)OCO3 (configuration not stated) |  | inactive

Row | SMILES | IC50 | outcome
49 | Nc1nc(N)c2sc3nc4c(cc3c2n1)CCC4 |  | inactive
50 | CCOc1ccccc1OCC(=O)Nc1ccc(N2CCCCC2)cc1 |  | inactive
51 | CCc1ccc(NC(=O)c2cnc3scc(C)n3c2=O)cc1 |  | inactive
52 | Cc1cc(-c2ccccc2)nc2cc(C(N)=O)nn12 |  | inactive
53 | c1ccc(N2CCN(c3cnccn3)CC2)nc1 |  | inactive
54 | CCc1c(C)c(C#N)c2nc3ccccc3n2c1Nc1c(C)n(C)n(-c2ccccc2)c1=O |  | inactive
55 | Cc1ccc(C2C3=C(CC(C)(C)CC3=O)N(CCN3CCOCC3)C3=C2C(=O)CC(C)(C)C3)cc1 |  | inactive
56 | CC1CC(C)CN(CCCNC(=O)Cn2ncc3c(=O)oc4ccccc4c32)C1 (configuration not stated) |  | inactive
57 | CC(O)COc1ccc(/C(=N/O)c2ccccc2)cc1 (configuration not stated) |  | inactive
58 | CCOc1ccc(N2CC(C(=O)OC)CC2=O)cc1 (configuration not stated) |  | inactive
59 | COc1ccccc1NC(=O)C1=C(C)NC2=C(C(=O)CCC2)C1c1ccc2c(c1)OCO2 (configuration not stated) | 76.3 µM | 
60 | Cc1ccc2oc(=O)c3cnn(CC(=O)NC4CCN(Cc5ccccc5)CC4)c3c2c1 |  | inactive
61 | CC(=NCc1ccco1)c1c(C)[nH]n(-c2nc3ccccc3s2)c1=O |  | inactive
62 | O=C(c1noc2c1CCCC2)N1CCCCC1 |  | inactive
63 | Cc1cc(=O)oc2cc(OC(C)C(=O)O)c(Cl)cc12 (configuration not stated) |  | inactive
64 | N#Cc1c(C(F)(F)F)cc(-c2ccco2)nc1SCc1ccncc1 |  | inactive
65 | CCOC(=O)c1c(CC(C)C)csc1NC=O |  | inactive
66 | CCn1c(SCC(=O)Nc2cccc(C(C)=O)c2)nnc1C(C)C |  | inactive
67 | CCOc1ccc(N(CC(=O)NC2CCCC(C)C2C)S(=O)(=O)c2c(C)noc2C)cc1 (configuration not stated) |  | inactive
